From ChEMBL document CHEMBL1152078, “An efficient preparation of the potent and selective pseudopeptide thrombin inhibitor, inogatran” (Bioorg Med Chem Lett, 1997)

Columns and labels:
[1] = The compound was evaluated for bioavailability in dogs; 34-44; format: ADME, organism-based, Canis lupus familiaris; conditions: dog, in vivo; read-out: Bioavailabiility
[2] = The compound was evaluated for bioavailability in rats; 32-51; format: ADME, organism-based; conditions: rat, in vivo; read-out: Bioavailabiility

bioavailability [1]: 44%
bioavailability [2]: 51%
Compound: Cl.Cl.N=C(N)NCCCNC(=O)[C@@H]1CCCCN1C(=O)[C@@H](CC1CCCCC1)NCC(=O)O
